Results on one compound are retold here after patent US11642332B2, “(2R,4R)-5-(5′-chloro-2′-fluorobiphenyl-4-yl)-2-hydroxy-4-[(5-methyloxazole-2-carbonyl)amino]pentanoic acid” (THERAVANCE BIOPHARMA R&D IP, LLC, priority 2015, dated 2023).

SMILES strings stand for the structures. Where two headings read alike, the source gives them in different places.

The nature of this series: IV/PO pharmacokinetic study in rats. It counts as in vivo, male Sprague-Dawley rats. Also noted: AUC(0-t): concentration or dose not given beside the values. Particulars: rat; for AUC(0-t): read-out: AUClast Mean. The protocol: Each rat or dog PK study began with formulation of the test compound. Appropriate masses of each test compound were added into a volume of vehicle (e.g. 5% sodium bicarbonate, 5% dextrose in H2O) such that the final concentration of each compound was appropriate to be dosed at 2 mL/kg. Although a homogenous suspension were acceptable for oral dosing, intravenous dosing solutions were sterile-filtered (0.2 μm) prior to dosing to ensure no particulates were administered.
In the rat study, pre-cannulated male Sprague-Dawley rats (3 per route) between 8 and 10 weeks of age were obtained from Harlan Laboratories (Indianapolis, Ind.). Rats received either a single oral gavage or a single intravenous (via lateral tail vein) dose of the dosing solution. The final dose was typically 0.5-3 mg/kg. Serial blood samples were harvested via the cannula implanted in the jugular vein at 3 minutes, 15 minutes, 30 minutes, 1 hour, 2 hours, 4 hours, 6 hours, and 24 hours post-dose. Sampling was performed either manually or using automated blood samplers. Samples were collected into microtainer tubes containing EDTA as the anticoagulant and were processed to plasma by refrigerated centrifugation.
Plasma samples were extracted with 3 volumes of MeCN containing a suitable internal standard. Extracts were reconstituted into 3 volumes of water containing 1% formic acid, and analyzed via HPLC-coupled MS/MS. Plasma concentration-time data were analyzed using the Phoenix software (Pharsight Corp., St. Louis, Mo.) to calculate pharmacokinetic parameters.
Plasma clearance was determined from the intravenous arm of the study, and represents the rate at which plasma is cleared of drug. It is equal to the dose divided by the area under the plasma concentration-time curve. In addition to plasma clearance, it is also essential for an orally administered drug to reach efficacious systemic levels following oral delivery. Oral bioavailability is a measurement of plasma exposures following oral administration relative to exposures following intravenous administration.

`Cc1cnc(C(=O)N[C@H](Cc2ccc(-c3cc(Cl)ccc3F)cc2)C[C@@H](O)C(=O)O)o1` [Compound 1, (2R,4R)-5-(5′-Chloro-2′-fluorobiphenyl-4-yl)-2-hydroxy-4-[(5-methyloxazole-2-carbonyl)amino]pentanoic Acid]: the AUC(0-t) runs as follows: (male, Sprague-Dawley, plasma, IV) 610 ng·h/mL; (male, Sprague-Dawley, plasma, PO) 400 ng·h/mL. In addition, the bioavailability (male, Sprague-Dawley, plasma, PO vs IV AUClast) was found to be 67%. In addition, the “CLlast Mean” value (IV, dose divided by AUClast) turned out to be 13.8 mL/min/kg.

One may read the bioavailability as the share of a dose that reaches the circulation, judged against a reference dose that is usually intravenous.
